In patent US12252472B1, “Barbituric acid derivatives, their preparation and use thereof as leukocyte transmigration inhibitors and for treating inflammatory diseases, autoimmune diseases and cancer” (BAR-ILAN UNIVERSITY, priority 2017, dated 2025):

Assays:
[1] = test system: HUVECs intercellular junctions; assay: Phenotypic changes at endothelial junctions (MesenFlow system); type: cell-based, human
From the text: This manifestation was termed “Fluttering”. Fluttering was characterized by a rapid fluctuating movement at the intercellular junctions of adjacent HUVECs, and predominantly within tri-cellular corners. This was characterized by a rapid change in phase at the cellular edges consistent with a physical movement that was associated with no leukocytes adhesion or migration within these regions (FIG. 27). […] This observation is therefore representative of a phenotype that is indicative of a disruption in leukocyte transmigration.

[2] = test system: primary human monocytes on TNF-alpha-activated HUVECs; assay: Shear flow assay: monocyte adhesion and transmigration on TNFα-activated HUVECs; type: cell-based
From the text: A flow assay that allows detailed analysis of individual leukocyte interactions with endothelial cells (ECs), described in Bradfield et al. (Bradfield et al., 2016, PloS One, July 21; 11(7); Bradfield et al., 2007, Blood. October 1; 110(7):2545-55) was used for evaluation of the biological effects of the compounds according to the invention. This method allows the determination of the possible effects of the compounds on three major phases in leukocyte migration: the capture of free non-bound leukocytes by endothelium, migration of leukocytes on the endothelium surface, and transendothelial migration (transmigration) of human leukocytes through the HUVECs layer. Post transmigrational events can also be monitored by tracking individual leukocytes. […] Human umbilical vein endothelial cells (HUVECs) were cultivated in the plastic channel of the flow chamber, and human leukocyte were flowed over them using a calibrated pump, allowing monocyte capture, adhesion and migration to be monitored.
Human umbilical vein endothelial cells (HUVEC) were isolated by collagenase treatment of umbilical veins as previously described (Wall, R. T., et al., Factors influencing endothelial cell proliferation in vitro. J Cell Physiol, 1978. 96(2): p. 203-13) and maintained in M199 containing 20% fetal calf serum (FCS), 15 μg/mL endothelial cell growth supplement (Upstate Biotechnology, Lake Placid, NY), 100 μg/mL heparin, 50 μM hydrocortisone, and 10 μg/mL vitamin C. Cells were cultured up to a maximum of passage 5.
Peripheral blood mononuclear cells (PBMCs) were first isolated from blood of healthy donors followed by monocyte purification using a monocyte isolation kit (Miltenyi Biotec, Bergisch Gladbach, Germany). Purity and activity of monocytes were controlled by flow cytometry by labelling with anti-CD14 and anti-CD62L. Only populations of 90% or more double positive cells were used.
Flow assays were conducted as described in a previous study (Bradfield, P. F., et al., JAM-C regulates unidirectional monocyte transendothelial migration in inflammation. Blood, 2007. 110(7): p. 2545-55). HUVECs were cultured at 1×10^5 cells/slide on Ibidi 6-chamber slides (80606; Ibidi) before treatment with TNFα (500 U/mL) for 6-10 hours. An individual chamber outlet was then attached to a calibrated pump (74 900; Cole Partner, Vernon Hills, IL) and flow was generated by perfusing wash buffer (M199 with 0.15% BSA) or a monocyte suspension (2.5×10^6 cells/mL) over the HUVEC monolayer. The flow rate was representative of shear rates in small venules (0.05 Pa). Observations made using phase-contrast microscopy (Model: Axiovert 100; Objective: 20×/0.3 NA air; Carl Zeiss) were recorded using a high-resolution camera (D70; Nikon, Zurich, Switzerland). Individual images were recorded every 30 seconds with Nikon capture software (v4.2) and compiled into movie sequences using Adobe Photoshop (CS6) and Image J (v1.5d), allowing analysis of individual monocytes over large areas. The tested compounds, e.g. compounds of the general Formula (I), were maintained at the specified concentration in all wash buffers throughout the course of the experiment. The compounds were preincubated separately on both HUVECs and monocytes 15 minutes prior to flow co-culture. HUVEC monolayers were washed for 10 minutes prior to a compound wash-in step to allow for this preincubation period. The monocyte suspension was then perfused over HUVECs for 4 minutes followed by 20 to 60 minutes with wash buffer. Time-lapse recording was started upon monocyte first-contact with the monolayer. Monocyte adhesion data are presented as the total number of monocytes per unit field. Transmigration events are presented as a percentage of total monocytes captured from flow per unit field. All experiments were carried out using quadruplicate fields and are presented as a mean value (±SEM).
A timeline is shown to represent the positioning and timing of an individual monocyte during movie analysis (marked ‘Timeline’). […]

human B-lymphoma cells = assay: B-lymphoma homing assay in NOD.CB17-Prkdcscid/J mice; type: in vivo
Description: Effect on the homing of the B-lymphocytes was tested in a model of B-cell lymphoma. Compound of Formula 2 (7.5 μM) was injected IV, together with 10×10^6 human B-lymphoma cells. After one and a half hours the amount of B-lymphocytes was tested in different organs.

DBA/1 mice = assay: Collagen induced arthritis (CIA) model; type: in vivo, mouse
Description: Male DBA/lOlaHsd mice (7-8 weeks of age) were injected with CII (Type II collagen)+CFA (complete Frennd's adjuvant) emulsion on Day 0 (S.C.) to persuade collagen induced arthritis (CIA). On Day 21 the animals receive the same amount of the emulsion as a booster. Twice between Days 0 and 18 after immunization (before enrollment begins), both hind paws of all mice were measured using calipers to establish baseline values for paw thickness. On Day 22 mice were enrolled into groups when they first shown paw swelling and treatment was initiated. A working formulation of compound of Formula 2 was administered by IP injections at 15 mg/kg dose at q3w regiment. Mock treated (vehicle) control group was administered IP with the same volume and regiment as a treatment group. Administration was performed at a constant volume dosage based on individual body weight. The severity of CIA was monitored daily. The CIA scoring is on the scale of 0 to 16 (0 to 4 for each paw, adding the scores for all 4 paws). On day 43 (24 hours post last dose administration) all paws thickness was measured and mice were euthanized. All limbs from each mouse were placed in individual labeled tubes, fixed in 4% buffered formalin, paraffin embedded and sectioned. Histological score was assessed using hematoxylin and eosin (H&E) stained sections. Joints were scored for inflammation, cartilage damage, pannus formation, and bone resorption on a scale of 0 to 3 for each readout. Two-way ANOVA statistical analysis was performed.

[3] = 7.5 μM IV together with 10×10^6 cells, after one and a half hours

Compound: COC(=O)c1ccc(COc2c(C=C3C(=O)NC(=O)NC3=O)cccc2C(C)(C)C)cc1 [Formula 2, methyl 4-((2-(tert-butyl)-6-((2,4,6-trioxotetrahydropyrimidin-5(2H)-ylidene)methyl)phenoxy)methyl) benzoate]
- junctional integrity ([1]; HUVECs co-culture): maintained
- Fluttering at HUVEC intercellular junctions ([1]; all HUVECs co-culture experiments): observed
- monocyte transmigration ([2]; 30 μM): completely blocked
- Monocyte adhesion ([2]; 30 μM, flow 0.05 Pa for 30 minutes): unaffected
- Level of Transmigration Blockage (%) ([2]; 30 μM, monocytes on TNF-activated HUVECs under flow 0.05 Pa): 100%
- IC50 ([2]; Homo sapiens, HUVEC, flow 0.05 Pa, n=3): 2400 nM
- Emax ([2]; Homo sapiens, HUVEC, monocyte transmigration inhibition, read-out: maximal efficacy): 48%
- concentration below which not active on monocyte transmigration ([2]; dose response, 100 μM to 3 nM): below 300 nM
- monocyte transmigration ([2]; dose response, 3 μM): partial blocking
- monocyte transmigration ([2]; dose response, 30-100 μM): full blocking
- time of the maximal effect ([2]; monocyte transmigration, read at 10, 15, 20 and 25 minutes): 20 min
- homing of the cancer cells to the spleen and liver (human B-lymphoma cells; 7.5 μM IV): significantly blocked
- reduction of B-lymphocyte homing in liver (human B-lymphoma cells; [3]): around 33%
- reduction of B-lymphocyte homing in spleen (human B-lymphoma cells; [3]): around 22%
- Histological score of joints (DBA/1 mice; 15 mg/kg IP q3w): significantly reduced
- fore and hind limb thickness (DBA/1 mice; 15 mg/kg IP q3w, day 43): significantly reduced
- CIA score (DBA/1 mice; FIG. 23 legend: 15 mg/kg SC): therapeutic effect
- histological evaluation of talus and calcaneum joint sections (DBA/1 mice; representative sections, treated mouse (FIG. 25B)): No cartilage and bone and erosion and profuse infiltration of inflammatory cells are present
